Reference: US6004960A, “Pyridazinones as inhibitors of cyclooxygenase-2” (Merck Frosst Canada, Inc., priority 1998, dated 1999)

Experiments:
COX-1 = COX-1 (Homo sapiens, UniProt P23219); assay: Assay of COX-1 activity from U937 cell microsomes; assay type: biochemical; design: Assay of COX-1 Activity from U937 cell microsomes; endogenous in cells; host or cells: U937 cells, 100,000×g microsomal pellet; conditions: PGE2, read-out: COX-1 (IC50 μM) U-937
Method: Assay of COX-1 Activity from U937 cell microsomes
U 937 cells are pelleted by centrifugation at 500×g for 5 min and washed once with phosphate-buffered saline and repelleted. […] The cell suspension is sonicated 4 times for 10 sec and is centrifuged at 10,000×g for 10 min at 4° C. The supernatant is centrifuged at 100,000×g for 1 hr at 4° C. The 100,000×g microsomal pellet is resuspended in 0.1 M Tris-HCl, pH 7.4, 10 mM EDTA to approximately 7 mg protein/ml and stored at -80° C.
Microsomal preparations are thawed immediately prior to use, subjected to a brief sonication, and then diluted to a protein concentration of 125 μg/ml in 0.1 M Tris-HCl buffer, pH 7.4 containing 10 mM EDTA, 0.5 mM phenol, 1 mM reduced glutathione and 1 μM hematin. Assays are performed in duplicate in a final volume of 250 pl. Initially, 5 µl of DMSO vehicle or drug in DMSO are added to 20 μl of 0.1 M Tris-HCl buffer, pH 7.4 containing 10 mM EDTA in wells of a 96-deepwell polypropylene titre plate. 200 μl of the microsomal preparation are then added and pre-incubated for 15 min at room temperature before addition of 25 μl of […] in 0.1 M Tris-HCl and 10 mM EDTA, pH 7.4. Samples are incubated for 40 min at room temperature and the reaction is stopped by the addition of 25 pl of 1 N HCl. Samples are neutralized with 25 μl of 1 N NaOH prior to quantitation of PGE2 content by radioimmunoassay (Dupont-NEN or Amersham assay kits). Cyclooxygenase activity is defined as the difference between PGE2 levels in samples incubated in the presence of arachidonic acid and ethanol vehicle.
(§1) In the assay, inhibition is determined by measuring the amount of prostaglandin E2 (PGE2) synthesized in the presence of arachidonic acid, cyclooxygenase-I or cyclooxygenase-2 and a putative inhibitor.

COX-2 [1] = biological target: T1, COX-2 (Homo sapiens, UniProt P35354); assay: Whole cell assay for COX-2 using CHO transfected cell line (CHO [hCOX-2]), PGE2; assay type: cell-based; design: expressed in transfected cells; host or cells: CHO (Chinese hamster ovary), stably transfected with pCDNAIII vector; CHO [hCOX-2]; conditions: CHO [hCOX-2] cells, 10 μM AA
T1 sequence (P35354 18-604): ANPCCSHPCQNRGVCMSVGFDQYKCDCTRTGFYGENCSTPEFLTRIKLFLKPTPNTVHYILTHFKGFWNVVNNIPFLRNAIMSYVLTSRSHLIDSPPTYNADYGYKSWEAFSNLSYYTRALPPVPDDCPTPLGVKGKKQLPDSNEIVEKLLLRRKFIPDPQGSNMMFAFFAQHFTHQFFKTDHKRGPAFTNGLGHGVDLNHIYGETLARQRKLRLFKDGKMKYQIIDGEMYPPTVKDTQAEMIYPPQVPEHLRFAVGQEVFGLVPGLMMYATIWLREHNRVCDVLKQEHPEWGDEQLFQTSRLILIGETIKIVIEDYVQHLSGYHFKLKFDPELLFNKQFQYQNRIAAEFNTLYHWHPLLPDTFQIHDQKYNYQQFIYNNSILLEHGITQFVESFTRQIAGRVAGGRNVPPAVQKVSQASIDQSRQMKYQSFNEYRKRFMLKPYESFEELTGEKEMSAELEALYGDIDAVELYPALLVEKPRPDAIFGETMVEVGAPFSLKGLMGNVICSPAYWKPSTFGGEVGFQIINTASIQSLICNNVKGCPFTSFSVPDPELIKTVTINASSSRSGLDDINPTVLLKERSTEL
Method: Chinese hamster ovary (CHO) cell lines which have been stably transfected with an eukaryotic expression vector pCDNAIII containing either the human COX-1 or COX-2 cDNA's are used for the assay. These cell lines are referred to as CHO [hCOX-1] and CHO [hCOX-2], respectively. […] Drugs to be tested are dissolved in DMSO to 66.7-fold the highest test drug concentration. […] Cells (0.3×10^6 cells in 200 p) are preincubated with 3 AIl of the test drug or DMSO vehicle for 15 min at 37° C. […] Cells are then challenged in the presence or absence of drug with the AA/HBSS solution to yield a final concentration of 0.5 μM AA in the CHOhCOX-1] assay and a final concentration of 10 μM AA in the CHO [hCOX-2] assay. […] The samples are centrifuged at 300×g at 4° C. for 10 min, and an aliquot of the clarified supernatant is appropriately diluted for the determination of PGE2 levels using an enzyme-liked immunoassay for PGE2 (Correlate PGE2 enzyme immunoassay kit, Assay Designs, Inc.). Cyclooxygenase activity in the absence of test compounds is determined as the difference in PGE2 levels of cells challenged with arachidonic acid versus the PGE2 levels in cells mock-challenged with ethanol vehicle. Inhibition of PGE2 synthesis by test compounds is calculated as a percentage of the activity in the presence of drug versus the activity in the positive control samples.
as §1

COX-2 [2] = biological target: T1, COX-2; assay: Human whole blood assay, COX-2 (LPS-induced PGE2 production); assay type: cell-based; design: incubation of human whole blood with LPS, which induces COX-2; from tissue; host or cells: fresh human whole blood (volunteers), incubated with LPS; conditions: LPS-induced PGE2, 24 hours at 37° C, read-out: COX-2 (IC50 μM) HWB
Excerpt: As well, platelets in whole blood contain a large amount of the COX-1 enzyme. Immediately following blood clotting, platelets are activated through a thrombin-mediated mechanism. This reaction results in the production of thromboxane B2 (TxB2) via activation of COX-1. Thus, the effect of test compounds on TxB2 levels following blood clotting can be examined and used as an index for COX-1 activity. Therefore, the degree of selectivity by the test compound can be determined by measuring the levels of PGE2 after LPS induction (COX-2) and […] following blood clotting (COX-1) in the same assay.
A. COX-2 (LPS-induced PGE2 production)
Fresh blood is collected in heparinized tubes by venipuncture from both male and female volunteers. The subjects have no apparent inflammatory conditions and have not taken any NSAIDs for at least 7 days prior to blood collection. Plasma is immediately obtained from a 2mL blood aliquot to use as blank (basal levels of PGE2). The remaining blood is incubated with LPS (100 μg/ml final concentration, Sigma Chem, #L-2630 from E. coli; diluted in 0.1% BSA (Phosphate buffered saline) for 5 minutes at room temperature. Five hundred μL aliquots of blood are incubated with either 2μL of vehicle (DMSO) or 2 μL of a test compound at final concentrations varying from 10nM to 30 μM for 24 hours at 37° C. At the end of the incubation, the blood is centrifuged at 12,000×g for 5 minutes to obtain plasma. A 100 μL aliquot of plasma is mixed with 400 μL of methanol for protein precipitation. The supernatant is obtained and is assayed for PGE2 using a radioimmunoassay kit (Amersham, RPA#530) after conversion of PGE2 to its methyl oximate derivative according to the manufacturer's procedure. […]

Sequence of COX-1 (P23219 24-599): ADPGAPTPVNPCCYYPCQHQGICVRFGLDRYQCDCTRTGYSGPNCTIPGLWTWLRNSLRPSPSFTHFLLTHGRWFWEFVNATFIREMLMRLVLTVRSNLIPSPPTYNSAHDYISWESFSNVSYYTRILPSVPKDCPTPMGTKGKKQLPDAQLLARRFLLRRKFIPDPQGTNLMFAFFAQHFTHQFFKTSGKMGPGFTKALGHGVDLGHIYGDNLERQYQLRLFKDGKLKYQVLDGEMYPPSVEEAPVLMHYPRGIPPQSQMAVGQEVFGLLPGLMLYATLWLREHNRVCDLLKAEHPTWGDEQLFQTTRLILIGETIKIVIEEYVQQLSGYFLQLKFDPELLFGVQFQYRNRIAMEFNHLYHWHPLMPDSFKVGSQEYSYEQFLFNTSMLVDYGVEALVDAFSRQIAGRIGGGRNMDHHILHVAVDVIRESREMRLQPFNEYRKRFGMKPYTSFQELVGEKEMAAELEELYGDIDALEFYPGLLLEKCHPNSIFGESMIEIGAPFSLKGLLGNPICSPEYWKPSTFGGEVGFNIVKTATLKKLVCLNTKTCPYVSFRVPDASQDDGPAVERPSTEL

| Compound | IC50 (COX-1) | IC50 (COX-2 [1]) | IC50 (COX-2 [2]) |
| --- | --- | --- | --- |
| CS(=O)(=O)c1ccc(-c2cnn(Cc3cccc(F)c3)c(=O)c2-c2ccccc2)cc1 [Example 15, 2-(3-Fluorobenzyl)-5-(4-methylsulfonyl)phenyl-4-phenyl-2H-pyridazin-3-one] | > 10 µM | 0.009 µM | 0.8 µM |
| CS(=O)(=O)c1ccc(-c2cnn(Cc3ccccc3F)c(=O)c2-c2ccccc2)cc1 [Example 17, 2-(2-Fluorobenzyl)-5-(4-methylsulfonyl)phenyl-4-phenyl-2H-pyridazin-3-one] | > 10 µM | – | – |
| CS(=O)(=O)c1ccc(-c2cnn(CCC(F)(F)F)c(=O)c2-c2ccc(F)cc2)cc1 [Example 19, 4-(4-Fluorophenyl)-5-(4-methylsulfonyl)phenyl-2-(3,3,3-trifluoropropyl)-2H-pyridazin-3-one] | > 10 µM | – | – |
| CS(=O)(=O)c1ccc(-c2cnn(Cc3ccncc3)c(=O)c2-c2ccc(F)cc2)cc1 [Example 20, 4-(4-Fluorophenyl)-5-(4-methylsulfonyl)phenyl-2-(4-pyridylmethyl)-2H-pyridazin-3-one] | > 10 µM | 1.4 µM | 16.8 µM |
| CS(=O)(=O)c1ccc(-c2cnn(-c3cccc(F)c3)c(=O)c2-c2ccccc2)cc1 [Example 26, 2-(3-Fluorophenyl)-5-(4-methylsulfonyl)phenyl-4-phenyl-2H-pyridazin-3-one] | > 10 µM | 0.065 µM | 5.5 µM |
| CS(=O)(=O)c1ccc(-c2cnn(CCCC(F)(F)F)c(=O)c2-c2ccc(F)cc2)cc1 [Example 29, 4-(4-Fluorophenyl)-5-(4-methylsulfonyl)phenyl-2-(4,4,4-trifluorobutyl)-2H-pyridazin-3-one] | > 10 µM | 0.18 µM | 1.3 µM |
| CC(C)Cn1ncc(-c2ccc(S(C)(=O)=O)cc2)c(-c2ccc(F)cc2)c1=O [Example 31, 4-(4-Fluorophenyl)-2-(2-methylpropyl)-5-(4-methylsulfonyl)phenyl-2H-pyridazin-3-one] | > 10 µM | 0.18 µM | 3.8 µM |
| CS(=O)(=O)c1ccc(-c2cnn(CCc3ccccc3)c(=O)c2-c2ccc(F)cc2)cc1 [Example 33, 2-(2-Phenethyl)-4-(4-fluorophenyl)-5-(4-methylsulfonyl)phenyl-2H-pyridazin-3-one] | > 10 µM | – | 8.6 µM |
| CS(=O)(=O)c1ccc(-c2cnn(Cc3ccccc3)c(=O)c2Oc2ccc(Br)cn2)cc1 [Example 34, 2-Benzyl-4-(5-bromo-2-pyridyloxy)-5-(4-methylsulfonyl)phenyl-2H-pyridazin-3-one] | > 10 µM | – | 0.86 µM |
| Cc1ccc(-c2c(-c3ccc(S(C)(=O)=O)cc3)cnn(Cc3ccccc3)c2=O)cc1 [Example 35, 2-Benzyl-4-(4-methylphenyl)-5-(4-methylsulfonyl)phenyl-2H-pyridazin-3-one] | – | – | 0.35 µM |

The remaining lines, values ahead:

| IC50 (COX-1) | IC50 (COX-2 [1]) | IC50 (COX-2 [2]) | Compound |
| --- | --- | --- | --- |
| > 10 µM | 2 µM | > 33 µM | COC(=O)c1ccc(Cn2ncc(-c3ccc(S(C)(=O)=O)cc3)c(-c3ccccc3)c2=O)cc1 [Example 13, 2-(4-Carbomethoxybenzyl)-5-(4-methylsulfonyl)phenyl-4-phenyl-2H-pyridazin-3-one] |
| 3 to 10 µM | 0.053 µM | 1.1 µM | CS(=O)(=O)c1ccc(-c2cnn(Cc3ccc(F)cc3)c(=O)c2-c2ccc(F)cc2)cc1 [Example 16, 2-(4-Fluorobenzyl)-4-(4-fluorophenyl)-5-(4-methylsulfonyl)phenyl-2H-pyridazin-3-one] |
| ~10 µM | – | – | CS(=O)(=O)c1ccc(-c2cnn(C3CC3)c(=O)c2-c2ccc(F)cc2)cc1 [Example 18, 2-Cyclopropyl-5-(4-methylsulfonyl)phenyl-4-(4-fluorophenyl)-2H-pyridazin-3-one] |
| 3 to 10 µM | 0.26 µM | 0.9 µM | CS(=O)(=O)c1ccc(-c2cnn(Cc3ccccc3)c(=O)c2Oc2ccc(Cl)cn2)cc1 [Example 23, 2-Benzyl-4-(5-chloro-2-pyridyloxy)-5-(4-methylsulfonyl)phenyl-2H-pyridazin-3-one] |
| ~10 µM | 0.16 µM | 2.4 µM | CC(C)(C)Cn1ncc(-c2ccc(S(C)(=O)=O)cc2)c(-c2ccc(F)cc2)c1=O [Example 24, 2-(2,2-Dimethylpropyl)-4-(4-fluorophenyl)-5-(4-methylsulfonyl)phenyl-2H-pyridazin-3-one] |
| ~1 µM | 0.49 µM | 1.4 µM | CC(c1ccccc1)n1ncc(-c2ccc(S(C)(=O)=O)cc2)c(-c2ccc(F)cc2)c1=O (stereo not shown) [Example 25, 4-(4-Fluorophenyl)-5-(4-methylsulfonyl)phenyl-2-(1-phenyl-ethyl)-2H-pyridazin-3-one] |
| ~1 µM | – | – | CS(=O)(=O)c1ccc(-c2cnn(Cc3cccs3)c(=O)c2-c2ccc(F)cc2)cc1 [Example 27, 4-(4-Fluorophenyl)-5-(4-methylsulfonyl)phenyl-2-(thiophen-2-yl-methyl)-2H-pyridazin-3-one] |
| 0.3 to 1 µM | – | – | CS(=O)(=O)c1ccc(-c2cnn(CC3CCCCC3)c(=O)c2-c2ccc(F)cc2)cc1 [Example 36, 2-Cyclohexylmethyl-4-(4-fluorophenyl)-5-(4-methylsulfonyl)phenyl-2H-pyridazin-3-one] |
